Results taken from paper PMC10067842 (Scientific Reports, 2023).
Values joined by “and” are separate entries in the source; they are usually repeats but may differ in a detail not shown here. Equal entries are not always repeated. “Also recorded” adds a separate entry of the source. Where two headings read alike, the source gives them in different places.

How the values were obtained:
[1] = tested on: HCoV-OC43; conditions: cited from earlier work
[2] = tested on: ORF3a of SARS-CoV; conditions: cited from earlier work
[3] = target: T1, ORF3a viroporin of SARS-CoV-2 (Severe acute respiratory syndrome coronavirus 2, UniProt P0DTC3); conditions: for activity against ORF3a (ORF3a-induced cytotoxicity): cell viability assay, result in words
[4] = target: T2, ORF3a channel of SARS-CoV-2 (Severe acute respiratory syndrome coronavirus 2, UniProt P0DTC3); assay: cell-based; conditions: for IC50: whole-cell currents, current differences at −60 mV, read-out: IC50, patch-clamp
T2 sequence (P0DTC3 1-275): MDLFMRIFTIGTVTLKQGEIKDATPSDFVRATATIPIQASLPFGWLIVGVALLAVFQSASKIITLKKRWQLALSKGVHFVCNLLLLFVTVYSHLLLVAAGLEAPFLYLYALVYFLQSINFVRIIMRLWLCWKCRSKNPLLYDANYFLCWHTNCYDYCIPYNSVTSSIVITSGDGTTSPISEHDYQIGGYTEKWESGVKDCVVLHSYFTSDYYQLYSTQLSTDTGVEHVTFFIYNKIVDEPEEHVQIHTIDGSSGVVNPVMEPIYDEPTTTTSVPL

[5] = target: T1, ORF3a viroporin of SARS-CoV-2; assay: cell-based; conditions: IC50, reversing viroporin-induced cell damage
[6] = tested on: ORF3a of SARS-CoV; conditions: Xenopus oocytes; cited from earlier work
[7] = tested on: SARS-CoV; conditions: cited from earlier work
[8] = tested on: HEK293 cells transfected with ORF3a; assay type: cell-based
[9] = tested on: HEK293 cells; assay: MTT cell viability assay of control cells transfected with empty vector; assay type: cell-based; conditions: 5 µM and higher (> 1 µM for ECGC), 10–20 µM
[10] = current–voltage recordings, result in words

Compound	IC50 [4] [µM]	IC50 [5]	activity against ORF3a (ORF3a-induced cytotoxicity) [3]	activity against ORF3a channel in patch-clamp [4, 10]	further results
Cc1cc(O)c2c(c1)C(=O)c1cc(O)cc(O)c1C2=O [emodin]					virus release [1]: able to repress virus release; inhibition of ORF3a of SARS-CoV [2]: inhibitor
NC12CC3CC(CC(C3)C1)C2 [amantadine, reference compound]	0.0045 ± 0.0002	43.7 ± 11.1 µM			Percentage inhibition from MTT data at the highest inhibitor concentration ([3]; Fig. 4D): 78%
O=c1c(-c2ccc(O)cc2)coc2cc(O)cc(O)c12 [genistein]			inactive		inhibition of ORF3a activity of SARS-CoV [6]: do not
CCCCC[C@H](O)CC(=O)CCc1ccc(O)c(OC)c1 [6-gingerol]			inactive	inactive	activity in the same expression system ([7]; Vero E6 cells): only low activity; morphology of ORF3a-transfected cells after treatment [8]: morphology of dying cells
CC(N)C12CC3CC(CC(C3)C1)C2 (stereo not shown) [rimantadine, reference compound]		4.4 ± 1.3 µM			potency of rimantadine higher than that of amantadine ([3]; cell viability assays): ~ tenfold; potency of rimantadine higher than that of amantadine ([4]; patch clamp experiments): approximately fourfold
COc1ccc(-c2cc(=O)c3c(OC)c(OC)c(OC)c(OC)c3o2)cc1OC [nobiletin]	0.0018 ± 0.0003	3.8 ± 0.9 µM	inhibitory activity	confirmed the inhibitory activity	activity against ORF3a (ORF3a-induced cytotoxicity) ([3]; listed as Nobiletin): potent activity; effect on viability of control cells (cytotoxic or proliferative effects) [9]: increased cell proliferation; also recorded: increased cell viability
COc1cc(/C=C/C(=O)CC(=O)/C=C/c2ccc(O)c(OC)c2)ccc1O [curcumin]					Percentage inhibition from MTT data at the highest inhibitor concentration [3]: 72%; inhibition of viral replication ([7]; SARS-CoV infected Vero E6 cells): effectively inhibited viral replication; activity against ORF3a channel in patch-clamp [4]: confirmed the inhibitory activity
Oc1ccc(/C=C/c2cc(O)cc(O)c2)cc1 [resveratrol]	0.0015 ± 0.0001	6.7 µM and 6.73 µM	inhibitory activity	confirmed the inhibitory activity	Percentage inhibition from MTT data at the highest inhibitor concentration ([3]; Fig. 4D): 86%
O=C1C[C@@H](c2ccc(O)cc2)Oc2cc(O)cc(O)c21 [naringenin]			inactive		inhibition of ORF3a activity of SARS-CoV [6]: do not
O=c1c(O)c(-c2ccc(O)c(O)c2)oc2cc(O)cc(O)c12 [quercetin]	0.0039 ± 0.0007	2.5 ± 0.2 µM	inhibitory activity	confirmed the inhibitory activity	effect on viability of control cells (cytotoxic or proliferative effects) [9]: increased cell proliferation; effect on viability of control cells (cytotoxic or proliferative effects) ([9]; listed as Quercetin): increased cell viability
epigallocatechin gallate [EGCG]	0.0007 ± 0.0001		inhibitory activity	confirmed the inhibitory activity	IC50 ([3]; read-out: IC50, reversing viroporin-induced cell damage): 1.6 µM and 1.56 µM; morphology of ORF3a-transfected cells after treatment [8]: healthy cells with normal morphology; effect on viability of control cells (cytotoxic or proliferative effects) [9]: increased cell proliferation; also recorded: increased cell viability
O=c1c(O)c(-c2ccc(O)cc2)oc2cc(O)cc(O)c12 [kaempferol]	0.0024 ± 0.0005	5.2 µM and 5.23 µM	inhibitory activity		
O=c1cc(-c2ccc(O)cc2)oc2cc(O)cc(O)c12 [apigenin]			inactive		
